Measured values: PubChem BioAssay (NCI)
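Briefly, cells in 96-well plates were exposed to five compound concentrations for 48 h, and endpoints were estimated by linear interpolation. GI50 marks 50% less growth. TGI: concentration producing complete growth inhibition.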

Legend:
Assay in all cases: NCI anticancer screen, dose series, 48 h
A549 NSCLC = tested on: A549 NSCLC
ACHN renal = tested on: ACHN renal
HT29 colon = tested on: HT29 colon
MCF7 breast = tested on: MCF7 breast
OVCAR-8 ovarian = tested on: OVCAR-8 ovarian
PC-3 prostate = tested on: PC-3 prostate
RXF 393 renal = tested on: RXF 393 renal
SK-MEL-28 melanoma = tested on: SK-MEL-28 melanoma
SK-OV-3 ovarian = tested on: SK-OV-3 ovarian
SR leukemia = tested on: SR leukemia

| SMILES | TGI (A549 NSCLC) [µM] | TGI (ACHN renal) [µM] | TGI (HT29 colon) [µM] | TGI (MCF7 breast) [µM] | TGI (OVCAR-8 ovarian) [µM] | TGI (PC-3 prostate) [µM] | TGI (RXF 393 renal) [µM] | TGI (SK-MEL-28 melanoma) [µM] | TGI (SK-OV-3 ovarian) [µM] | TGI (SR leukemia) [µM] | GI50 (A549 NSCLC) [µM] | GI50 (ACHN renal) [µM] | GI50 (HT29 colon) [µM] | GI50 (MCF7 breast) [µM] | GI50 (OVCAR-8 ovarian) [µM] | GI50 (PC-3 prostate) [µM] | GI50 (RXF 393 renal) [µM] | GI50 (SK-MEL-28 melanoma) [µM] | GI50 (SK-OV-3 ovarian) [µM] | GI50 (SR leukemia) [µM] |
| --- | --- | --- | --- | --- | --- | --- | --- | --- | --- | --- | --- | --- | --- | --- | --- | --- | --- | --- | --- | --- |
| CCOc1ccccc1N=Cc1c2ccccc2cc2ccccc12 | 80.9 | > 93.3 | 54.2 | > 79.8 | 70 | > 68.8 | 37.4 | > 73.5 | 68.6 | 61.7 | – | – | – | – | – | – | – | – | – | – |
| CSc1nc2ccc(C)cc2cc1/C=C1/C=C(c2ccccc2)NC1=O | 30.7 | 5.54 | > 100 | > 100 | 23.2 | > 100 | – | > 100 | > 100 | > 100 | 3.54 | 1.04 | 3.44 | 12.5 | 3.6 | 5.32 | 3.06 | 23.1 | 4.83 | 0.598 |
| O=C1CC2OCC=C3CN4CCC5(C(=O)O)C(N1)C2C3CC45 (centres undefined) | > 100 | > 100 | > 100 | > 100 | > 100 | > 100 | > 100 | > 100 | > 100 | > 100 | – | – | – | – | – | – | – | – | – | – |
| CCCCCCCCc1cc(O)ccc1O | > 100 | 50.9 | 49.4 | 66.8 | > 100 | 37.3 | 24.9 | 33.4 | > 100 | 50.8 | 28.6 | 20.4 | 16.1 | 24.8 | 29.2 | 16 | 10.7 | 17.4 | 34.8 | 15 |
